Experimental data reported in the supplement of paper PMC10307832.

Legend:
Test in all cases: relative viability (nuclei count vs DMSO), 5 days (fraction); higher = more cells survive
Dabrafenib + Bortezomib = compound: CC(C)(C)c1nc(-c2cccc(NS(=O)(=O)c3c(F)cccc3F)c2F)c(-c2ccnc(N)n2)s1 [Dabrafenib] + CC(C)C[C@H](NC(=O)[C@H](Cc1ccccc1)NC(=O)c1cnccn1)B(O)O [Bortezomib] (partner 0.002 µM)
In short: (§1)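 Lung cancer cell lines were seeded in 1536-well plates and dosed by pin tool the next day, with either a single drug or a fixed anchor-drug dose combined with five library-drug doses (not always all listed) spaced in √10 steps. Five days later, one step fixed the cells and stained their nuclei (final 0.05% Triton X-100, 1% formaldehyde, 1 ug/ml Hoechst), and nuclei were counted on 4× images. Relative viability is the nuclei count in treated wells divided by the count in vehicle wells, and each value is the median of duplicate plates.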

Dabrafenib + Dasatinib = compound: CC(C)(C)c1nc(-c2cccc(NS(=O)(=O)c3c(F)cccc3F)c2F)c(-c2ccnc(N)n2)s1 [Dabrafenib] + Cc1nc(Nc2ncc(C(=O)Nc3c(C)cccc3Cl)s2)cc(N2CCN(CCO)CC2)n1 [Dasatinib] (partner 0.075 µM)
In short: as §1

VX-702 + Trametinib = compound: NC(=O)c1ccc(N(C(N)=O)c2c(F)cccc2F)nc1-c1ccc(F)cc1F [VX-702] + CC(=O)Nc1cccc(-n2c(=O)n(C3CC3)c(=O)c3c(Nc4ccc(I)cc4F)n(C)c(=O)c(C)c32)c1 [Trametinib] (partner 0.02 µM)
In short: as §1

VX-702 + Foretinib = compound: NC(=O)c1ccc(N(C(N)=O)c2c(F)cccc2F)nc1-c1ccc(F)cc1F [VX-702] + COc1cc2c(Oc3ccc(NC(=O)C4(C(=O)Nc5ccc(F)cc5)CC4)cc3F)ccnc2cc1OCCCN1CCOCC1 [Foretinib] (partner 0.25 µM)
In short: as §1

Cell Line	relative viability (Dabrafenib + Bortezomib; first compound 0.009487 µM)	relative viability (Dabrafenib + Bortezomib; first compound 0.3 µM)	relative viability (Dabrafenib + Dasatinib; first compound 0.009487 µM)	relative viability (Dabrafenib + Dasatinib; first compound 0.03 µM)	relative viability (Dabrafenib + Dasatinib; first compound 0.09487 µM)	relative viability (Dabrafenib + Dasatinib; first compound 0.3 µM)	relative viability (VX-702 + Trametinib; first compound 0.02 µM)	relative viability (VX-702 + Trametinib; first compound 0.2 µM)	relative viability (VX-702 + Trametinib; first compound 0.6325 µM)	relative viability (VX-702 + Trametinib; first compound 2 µM)	relative viability (VX-702 + Foretinib; first compound 0.02 µM)	relative viability (VX-702 + Foretinib; first compound 0.2 µM)	relative viability (VX-702 + Foretinib; first compound 0.6325 µM)	relative viability (VX-702 + Foretinib; first compound 2 µM)	relative viability (Dabrafenib + Bortezomib; first compound 0.003 µM)	relative viability (Dabrafenib + Bortezomib; first compound 0.03 µM)	relative viability (Dabrafenib + Bortezomib; first compound 0.09487 µM)	relative viability (Dabrafenib + Dasatinib; first compound 0.003 µM)
NCI-H2347	1.2	0.84	0.309	0.308	0.448	0.38	0.188	0.314	0.384	0.282	1.49	0.828	1.16	1.03				
NCI-H1437	0.529	0.516	0.372	0.256	0.39	0.482	0.519	0.447	0.464	0.497	1.31	1.3	1.35	1.41	0.299	0.518	0.534	0.281
CAL-12T	1.18	1.08	0.434	0.476	0.325	0.42	0.368	0.371	0.321	0.329	1.05	1.09	1.01	1.28	0.623	1.06	1.12	0.493
NCI-H1651	0.887	0.862	0.411	0.373	0.442	0.435	0.747	0.822	0.819	0.884	0.814	0.794	0.824	0.803	0.857	0.972	0.946	0.355
RERF-LC-KJ	1.33	1.13	0.919	0.92	0.799	0.989	0.749	0.872	0.86	0.919	0.995	0.923	0.984	0.934	1.02	1.05	1.05	0.73
EKVX	1.1	1.12	0.585	0.522	0.533	0.628	0.241	0.291	0.307	0.281	0.754	0.432	0.49	0.685	0.77	0.969	0.891	
EMC-BAC-2	1.11	1.06	0.319	0.317	0.246	0.295	0.914	0.921	0.842	0.725	0.597	0.93	0.999	1.06	1.04	1.03	0.936	0.327
PC-3 [JPC-3]	0.9	0.857	1.06	0.925	0.881	1.03	0.644	0.76	0.768	0.855	1.11	1.02	1.1	1.05	0.745	0.773	0.875	0.882
HCC-78	0.655	0.513	0.492	0.483	0.251	0.408	0.53	0.861	0.741	0.801	0.523	0.527	0.59	0.479		0.543	0.4	
HCC-44	0.854	0.964					1.11	1.06	1.05	1.1					0.884	0.935	0.853	
NCI-H1623			0.521	0.585	0.611	0.619					0.819	0.81	0.835	0.744				
NCI-H358			0.197	0.233	0.487	0.392	0.147	0.143	0.126	0.143	0.692	0.598	0.663	0.936				0.185
NCI-H1395			0.462	0.396	0.409	0.366	1.06	1.11	1.09	1.24	0.986	1.03	0.968	1.12				0.375
Calu-6	1.03	0.824									0.975	0.902	0.896	0.971	1.07	0.844	0.712	
LK-2			0.274		0.285	0.276	0.591	0.696	0.568	0.788	0.985	1.21	1.08	1.11				0.208
NCI-H2342			0.309	0.344	0.323	0.334	0.686	1.01	0.871	0.835	0.887	1.07	1.02	1.14				0.288
A549											1.02	0.975	0.92	1.07				
NCI-H1944			0.24	0.236	0.244	0.178	0.426	0.401	0.398	0.378	0.812	0.821	0.798	0.71				0.197
NCI-H1792	0.923	0.893	0.839	0.892	0.857	0.905	0.425	0.394	0.397	0.482						0.897	0.885	
NCI-H1563	0.897	0.929	0.46	0.459	0.461	0.456					1.04	0.914	1	0.822	0.855	0.687	0.898	0.408
NCI-H1299	0.97	1									1.15	1.14	1.15	1.22	0.962	1	0.993	
NCI-H1648							0.395	0.579	0.593	0.435								
NCI-H1793			0.503			0.399	0.438		0.452	0.451	0.671	0.705	0.703	0.719				
NCI-H1703	0.496	0.43									0.32	0.367	0.325	0.395	0.422	0.409	0.28	
EBC-1	0.644	0.353									0.107	0.111	0.0889	0.0899	0.602	0.477	0.411	
